Entries after “also recorded” stand apart in the source; their conditions may differ.
Columns and labels:
[1] = system: full-thickness burn wounds on pig skin; assay: Hair growth in full-thickness pig skin burn wound model; type: in vivo, pig (Yorkshire strain); details: for hair growth, % of the original pre-burn area: topical, full-thickness burn, postburn day 30
Excerpt: TGF-β peptantagonists with amino acid sequences corresponding to residues 41-65 of TGF-β1 (SEQ ID NO: 8) and TGF-β2 (SEQ ID NO: 9), and TGF-β peptantagonist 6-β1^25 (SEQ ID NO: 7), which have additional 6 glutamate residues at the N-termini were synthesized and purified as described previously. Sterile IntraSite gel was obtained from Smith and Nephew Medical, Ltd. (UK) and mixed with TGF-β peptantagonists in phosphate-buffered saline at a ratio of 3:1 (v/v).
Female pigs (Yorkshire strain, house inbred and specific pathogen-free) weighing 20-25 kg were used in the experiments. The pigs were housed in individual rooms. They were fed standard laboratory chow and water ad libitum. All study protocols were reviewed and approved by the respective institutional animal care committees.
Four pigs weighing 20-25 kg were anesthetized by intramuscular injection of ketamine (5 mg/kg), strenil (cazaporonum) (20 mg/kg), and atropine ([…]). Six uniform burn wounds (110° C., 30 s) were then made symmetrically on the back of each pig using a modified soldering iron with a flat contact area of 20 cm^2. […] After wounding, IntraSite gels containing 6-E-β1^25 and buffer vehicle (as control) were applied to the pig burn wounds. All wounds were dressed with paraffin gauze. TGF-β peptantagonist gel or control gel was applied to the wounds every 2 days for the first 10 days and twice a week for the next 30 days. All wounds were cleaned and measured before each application of the IntraSite gel.
Hair growth was assessed by measuring hair number and hair length in the burn lesion and around the lesion area. Hair growth was monitored every 2 days for the first 10 days and twice a week for 30 more days. Hair growth expressed as a percent of the original wound size was calculated.
The pig model is commonly used in skin injury (e.g., burn) experiments because porcine skin is anatomically very similar to human skin. It was used to determine the ability of 6-E-β1^25 peptantagonist to rescue or restore hair follicles and to promote hair growth in a standardized burn injury. Four pigs weighing 20-25 kg were anesthetized by intramuscular injection of ketamine (5 mg/kg). A soldering iron with a flat contact area of ˜20 cm^2 was used to generate full-thickness burn wounds (110° C., 30 s) at standard sites on the skin of the back. Six thermal burns (three on each side) were created on each pig. After wounding, two lesions were treated with a thin layer of IntraSite gel containing 6-E-β1^25 (SEQ ID NO: 7) (0.15 and 0.6 mM); two received gel alone and two received no topical applications. All wounds were then bandaged and protected from potential contact irritation with a fixed frame. 6-E-β1^25 (SEQ ID NO: 7) and vehicle gels were applied every 2 days for the first 10 days and twice a week for the next 30 days, at which time hair growth was measured and photographed. Each animal served as its own control. […] At 0.15 and 0.6 mM, 6-E-β1^25 (SEQ ID NO: 7) promoted hair growth of 5-10 and 30-40% of the original pre-burn area, respectively.

TGF-β = TGF-β antagonist activity of C44S/C48S variants (test not specified); details: C44S/C48S versions versus parent peptides
Excerpt: In another embodiment of the invention variants of peptantagonists β3^25 (41-65) (SEQ ID NO: 4), β2^25 (41-65) (SEQ ID NO: 5), and β3^25 (41-65) (SEQ ID NO: 6), are provided in which cysteine-44 and cysteine-48 were replaced by serine residues.

[2] = system: TGF-β receptors in mink lung epithelial cells; details: earlier finding of the inventors (U.S. Pat. No. 6,500,920); cited from earlier work
[3] = system: mink lung epithelial cells; details: mink lung epithelial cells and other cell types; U.S. Pat. No. 6,500,920; cited from earlier work
PAI-1 = details: mink lung epithelial cells and other cell types; U.S. Pat. No. 6,500,920; cited from earlier work
[4] = Stability in solution / in IntraSite gel during storage; details: C44S/C48S versions versus parent peptides
Description: One milliliter of sterile 3 mM each of TGF-β peptantagonist 6-E-β1^25 (SEQ ID NO: 7), in phosphate-buffered saline (PBS) or 1 ml of sterile PBS (vehicle) was vigorously mixed with 3 ml of IntraSite gel using two 10 ml syringes connected with a three-way connector.

| Substance | TGF-β antagonist activity compared with the cysteine-containing peptantagonists (TGF-β) | inhibition of binding of radiolabeled TGF-β1, TGF-β2 and TGF-β3 to TGF-β receptors [2] | block of TGF-β-induced growth inhibition [3] | block of TGF-β-induced expression of PAI-1 (PAI-1) | further results |
| --- | --- | --- | --- | --- | --- |
| 6-E-β1^25: β1^25 C44S/C48S derivitized with 6 glutamate at the N-terminus (EEEEEEANFSLGPSPYIWSLDTQYSKVLALY; six N-terminal glutamates; listed as Homo Sapiens) | – | – | – | – | hair growth, % of the original pre-burn area ([1]; 0.15 mM in IntraSite gel): 5-10%; hair growth, % of the original pre-burn area ([1]; 0.6 mM in IntraSite gel): 30-40%; promotion of hair growth (effective concentrations, dose dependence) ([1]; 0.15 and 0.6 mM in IntraSite gel): effective in promoting hair growth; also recorded: promote hair growth in a dose-dependent manner; hair growth in the area surrounding the burn wound ([1]; 0.15 and 0.6 mM, topical gel): promoted hair growth in the area surrounding the burn wound; re-epithelialization and hair growth of treated wounds ([1]; postburn day 30, topical gel): exhibited re-epithelialization and hair growth |
| NH2-ANFSLGPSPYIWSLDTQYSKVLALY-COOH (H-ANFSLGPSPYIWSLDTQYSKVLALY-OH; listed as Homo Sapiens) [β1^25 C44S/C48S, variant of β1^25 (41-65) in which cysteine-44 and cysteine-48 were replaced by serine residues] | the same TGF-β antagonist activity | – | – | – | – |
| β1^25 (41-65): chemically synthesized peptide corresponding to the 41st to 65th amino acid residues of TGF-β1 | – | inhibit | block | block | – |
| β2^25 C44S/C48S: variant of β2^25 (41-65) in which cysteine-44 and cysteine-48 were replaced by serine residues (ANFSAGASPYLWSSDTQHSRVLSLY; listed as Homo Sapiens) | the same TGF-β antagonist activity | – | – | – | stability in solution during storage [4]: better stability in solution during storage |
| β3^25 C44S/C48S: variant of β3^25 (41-65) in which cysteine-44 and cysteine-48 were replaced by serine residues (ANFSSGPSPYLRSADTTHSTVLGLY; listed as Homo Sapiens) | the same TGF-β antagonist activity | – | – | – | stability in solution during storage [4]: better stability in solution during storage |
| β3^25 (41-65): chemically synthesized peptide corresponding to the 41st to 65th amino acid residues of TGF-β3 (ANFCSGPCPYLRSADTTHSTVLGLY; listed as Homo Sapiens) | – | inhibit | block | block | – |
| β2^25 (41-65): chemically synthesized peptide corresponding to the 41st to 65th amino acid residues of TGF-β2 (ANFCAGACPYLWSSDTQHSRVLSLY; listed as Homo Sapiens) | – | inhibit | block | block | – |

Reference: patent publication US8110655B2, “Method to promote hair growth and/or delay or treat hair loss by administering a TGF-β antagonist or inhibitor” (Auxagen, Inc., priority 2006, dated 2012)
